GI50 and TGI data for twelve compounds are collected here from PubChem BioAssay (NCI).

Each structure is given as a SMILES string. Values joined by “and” are separate entries in the source; they are usually repeats but may differ in a detail not shown here. Identical values can stand only once.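 Briefly, cells in 96-well plates were exposed to five compound concentrations for 48 h, and endpoints were estimated by linear interpolation. GI50 is the concentration that inhibits growth by half. TGI marks complete inhibition of growth.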

Test systems include NCI-H226 lung; COLO 205 colon; SR leukemia; ACHN renal; OVCAR-5 ovarian; T-47D breast; HCT-116 colon; M14 melanoma; SW-620 colon; HOP-62 NSCLC.
Experiment in all cases: inhibition of tumour cell growth, NCI panel, 48 h

Regarding `CC1(C)CC[C@]2(C(=O)NCCNCCN)CC[C@]3(C)C(=CC[C@@H]4[C@@]5(C)CCC(=O)C(C)(C)[C@@H]5CC[C@]43C)[C@@H]2C1`, the GI50 in the test on NCI-H226 lung was 11 µM; with COLO 205 colon it was 2.06 µM; with SR leukemia, 1.7 µM; in the test with ACHN renal, 1.77 µM; in the test with OVCAR-5 ovarian, 1.98 µM; with T-47D breast, 1.88 µM. For the same compound, the GI50 with HCT-116 colon was 1.75 µM; with M14 melanoma it was 1.87 µM; in the test with SW-620 colon, 1.8 µM; in the test with HOP-62 NSCLC, 2.05 µM. Moreover, the TGI was found to be 36.1 µM in the test on NCI-H226 lung; 4.18 µM in the test with COLO 205 colon; 4.76 µM with SR leukemia; 3.2 µM in the test with ACHN renal; 4.56 µM with OVCAR-5 ovarian; 3.95 µM in the test on T-47D breast. Also, the TGI in the test on HCT-116 colon was determined as 3.21 µM; in the test on M14 melanoma it was 3.5 µM; in the test on SW-620 colon it was 3.56 µM; with HOP-62 NSCLC it was 4.13 µM.
As for `N#Cc1c(N)c(C(=O)c2ccc3c(c2)OCCO3)n2c1CCCC2`, the GI50 was more than 100 µM in the test on NCI-H226 lung; 1.82 µM in the test on COLO 205 colon; 0.869 µM in the test with SR leukemia; 7.42 µM in the test with ACHN renal; 8.82 µM in the test on OVCAR-5 ovarian; 4.38 µM in the test with T-47D breast. In addition, the GI50 was 3.55 µM with HCT-116 colon, 2.08 µM in the test with M14 melanoma, 2.07 µM in the test on SW-620 colon and 3.48 µM in the test with HOP-62 NSCLC. Moreover, the TGI was more than 100 µM with NCI-H226 lung; more than 23.5 µM with COLO 205 colon; more than 100 µM with SR leukemia; more than 100 µM with ACHN renal; more than 100 µM with OVCAR-5 ovarian; more than 100 µM in the test with T-47D breast. In addition, the TGI in the test on HCT-116 colon, in the test on M14 melanoma, in the test on SW-620 colon and in the test on HOP-62 NSCLC was more than 100 µM throughout.
`C=C[C@@H]1CCC/C=C/[C@@H]2C[C@H](O)C[C@H]2[C@H](O)/C=C/C(=O)O1`: the GI50 in the test with NCI-H226 lung was 0.265 µM; in the test on COLO 205 colon it was 0.224 µM; in the test on SR leukemia, 1.64 µM; in the test on ACHN renal it was 1.03 µM; in the test with OVCAR-5 ovarian, 0.664 µM; in the test with T-47D breast, 1.21 µM. Further, the GI50 with HCT-116 colon was 0.866 µM; in the test on M14 melanoma, 0.387 µM; in the test with SW-620 colon, 0.361 µM; with HOP-62 NSCLC, 1.33 µM. The TGI in the test with NCI-H226 lung is 0.784 µM; with COLO 205 colon, 0.441 µM; with SR leukemia it was more than 28 µM; with ACHN renal, more than 100 µM; with OVCAR-5 ovarian it was more than 100 µM; in the test on T-47D breast it was 4.28 µM. Besides, the TGI with HCT-116 colon was 2.49 µM; with M14 melanoma, more than 28.9 µM; in the test on SW-620 colon it was 1.57 µM; in the test on HOP-62 NSCLC it was more than 100 µM.
Take `COc1ccc(NC(=O)c2ccc(C(F)(F)F)nc2Nc2ccc(Cl)cc2C)cc1Cl`: the GI50 in the test with NCI-H226 lung was 2.99 µM; in the test with COLO 205 colon, 2.72 µM; with SR leukemia it was 1.72 µM; in the test on ACHN renal it was 5.36 µM; with OVCAR-5 ovarian, 9.62 µM; in the test with T-47D breast, 2.58 µM. For the same compound, the GI50 with HCT-116 colon is 3.08 µM; in the test with M14 melanoma, 7.14 µM; in the test with SW-620 colon, 4.09 µM; in the test with HOP-62 NSCLC it was 10.7 µM. Also, the TGI was determined as 14.4 µM in the test with NCI-H226 lung; 10.7 µM with COLO 205 colon; 6.46 µM in the test on SR leukemia; 18.6 µM with ACHN renal; 25.4 µM in the test on OVCAR-5 ovarian; 28.9 µM in the test with T-47D breast. Further, the TGI in the test with HCT-116 colon was 13.1 µM; in the test on M14 melanoma, 22.3 µM; with SW-620 colon it was 14.7 µM; in the test on HOP-62 NSCLC, 23.9 µM.
In the case of `Oc1cccc2ccc(SSc3ccc4cccc(O)c4n3)nc12`, the TGI in the test on NCI-H226 lung is more than 100 µM; in the test with COLO 205 colon, 35.2 µM; with SR leukemia it was more than 100 µM; with ACHN renal, 29.7 µM; in the test on OVCAR-5 ovarian, 41.4 µM; with T-47D breast it was 38.6 µM. The TGI in the test on HCT-116 colon is 41.1 µM; in the test on M14 melanoma, 33.3 µM; in the test on SW-620 colon, 96.4 µM; in the test on HOP-62 NSCLC it was 39.9 µM.
On to `COc1ccc(-c2c(NC(=O)Nc3ccc(Cl)c(C(F)(F)F)c3)cnn2-c2ccc(S(N)(=O)=O)cc2)cc1`, for which the GI50 with NCI-H226 lung is 3.23 µM; with COLO 205 colon, 2.31 µM; in the test with SR leukemia it was 1.99 µM; with ACHN renal, 3.97 µM; in the test with OVCAR-5 ovarian, 3.54 µM; with T-47D breast, 2.69 µM. The GI50 was 2.04 µM in the test on HCT-116 colon, 3.32 µM with M14 melanoma, 3.86 µM with SW-620 colon and 4.07 µM in the test with HOP-62 NSCLC. Moreover, the TGI in the test on NCI-H226 lung worked out at 14.6 µM; in the test on COLO 205 colon it was 5.31 µM; in the test with SR leukemia it was 5.83 µM; in the test on ACHN renal, 14.2 µM; in the test on OVCAR-5 ovarian it was 14.4 µM; in the test on T-47D breast, 12.4 µM. The TGI in the test on HCT-116 colon was found to be 4.22 µM; with M14 melanoma, 12 µM; with SW-620 colon, 13.8 µM; in the test with HOP-62 NSCLC it was 16.1 µM.
For the compound `O=C1/C(=C/c2ccc(Cl)cc2)N=C(c2ccccc2)N1c1cc(C(F)(F)F)ccc1Cl`, the GI50 in the test with NCI-H226 lung was 23.6 µM; in the test on COLO 205 colon, 17.5 µM; with SR leukemia it was 28.7 µM; in the test with ACHN renal, 22.1 µM; in the test with OVCAR-5 ovarian, 24.9 µM; in the test on T-47D breast, 22.4 µM. Moreover, the GI50 with HCT-116 colon is 16.8 µM; in the test with M14 melanoma it was 22 µM; in the test with SW-620 colon, 28.9 µM; in the test with HOP-62 NSCLC, 15 µM. Also, the TGI was more than 100 µM in the test with NCI-H226 lung; 40.7 µM in the test with COLO 205 colon; 68 µM in the test with SR leukemia; more than 100 µM in the test on ACHN renal; 64.2 µM in the test with OVCAR-5 ovarian; more than 100 µM in the test on T-47D breast. Also, the TGI in the test with HCT-116 colon was 48.3 µM; with M14 melanoma, 90.1 µM; in the test on SW-620 colon it was more than 100 µM; in the test with HOP-62 NSCLC, 42.8 µM.
As to `Oc1cccc2cccnc12`, the GI50 in the test on NCI-H226 lung was 8.82 µM and 44.4 µM and 28.6 µM; with COLO 205 colon, 5.58 µM and 19.1 µM and 16.9 µM; in the test on ACHN renal, 5.98 µM and 23.1 µM and 6 µM; with HCT-116 colon, 1.06 µM and 3.42 µM and 1.46 µM; in the test on M14 melanoma it was 3.01 µM and 24.2 µM and 2.99 µM; in the test on SW-620 colon it was 0.904 µM and 3.9 µM and 2.36 µM. Besides, the GI50 in the test on HOP-62 NSCLC was 4.47 µM and 5.39 µM and 13.5 µM. Further, the TGI is 37.4 µM and > 100 µM and > 84 µM in the test on NCI-H226 lung; 40.3 µM and 67.7 µM and > 100 µM in the test with COLO 205 colon; 23.7 µM and 3.71 µM in the test with SR leukemia; more than 100 µM with ACHN renal; 21.1 µM and > 100 µM in the test with OVCAR-5 ovarian; more than 100 µM in the test with T-47D breast. In addition, the TGI is 23.1 µM and > 100 µM with HCT-116 colon; 35.4 µM and > 100 µM in the test on M14 melanoma; more than 100 µM in the test on SW-620 colon; more than 100 µM in the test with HOP-62 NSCLC.
With `Cc1ccc(NC(=O)CCc2nnc3s/c(=C\C=C\c4ccccc4)c(=O)n23)cc1`, the TGI in the test on NCI-H226 lung was more than 100 µM; in the test with COLO 205 colon it was more than 100 µM; in the test on SR leukemia, 65.6 µM; with ACHN renal it was more than 100 µM; in the test on OVCAR-5 ovarian it was more than 100 µM; in the test with T-47D breast, more than 31.6 µM. Moreover, the TGI with HCT-116 colon, in the test on M14 melanoma, with SW-620 colon and with HOP-62 NSCLC was more than 100 µM each time.
As to `Oc1c(CN2CCCCC2)ccc2cccnc12`, the GI50 in the test on NCI-H226 lung was 2.41 µM; in the test with COLO 205 colon, 3.64 µM; with SR leukemia, 3.36 µM; with ACHN renal it was 1.87 µM; with OVCAR-5 ovarian it was 5.23 µM; in the test with T-47D breast, 3.63 µM. For the same compound, the GI50 is 2.73 µM with HCT-116 colon, 2.3 µM with M14 melanoma, 4.26 µM in the test on SW-620 colon and 3.75 µM in the test on HOP-62 NSCLC. The TGI in the test with NCI-H226 lung is 16 µM; in the test with COLO 205 colon, 15 µM; in the test on SR leukemia, more than 100 µM; with ACHN renal it was more than 100 µM; with OVCAR-5 ovarian, 76.9 µM; in the test on T-47D breast, 31 µM. Further, the TGI in the test with HCT-116 colon was 9.18 µM; in the test with M14 melanoma it was 8.06 µM; in the test on SW-620 colon, 18 µM; in the test on HOP-62 NSCLC it was 54.3 µM.
Turning to `Cn1cc(-c2ncnc3ccc(-c4cnc(Cl)c(NS(C)(=O)=O)c4)cc23)c2ccccc21`, the GI50 in the test on NCI-H226 lung is 1.25 µM; in the test on COLO 205 colon, 0.829 µM; in the test on SR leukemia, 1.24 µM; in the test with ACHN renal, 0.781 µM; with OVCAR-5 ovarian it was 0.382 µM; in the test on T-47D breast it was 0.0944 µM. Besides, the GI50 is 2.37 µM in the test on HCT-116 colon, 0.976 µM in the test on M14 melanoma, 1.28 µM in the test with SW-620 colon and 0.791 µM in the test on HOP-62 NSCLC. For the same compound, the TGI is 74.7 µM in the test on NCI-H226 lung; 13.1 µM with COLO 205 colon; more than 35.9 µM with SR leukemia; more than 100 µM with ACHN renal; more than 100 µM in the test on OVCAR-5 ovarian; 0.691 µM in the test on T-47D breast. The TGI in the test on HCT-116 colon is 98.1 µM; in the test with M14 melanoma it was more than 100 µM; with SW-620 colon it was more than 100 µM; with HOP-62 NSCLC, more than 22.6 µM.
With `O=C1NN(C(=O)c2ccccc2)C(c2ccc(Cl)c(Cl)c2)=C/C1=C\c1ccccc1[N+](=O)[O-]`, the GI50 with NCI-H226 lung was 1.44 µM; with COLO 205 colon, 1.52 µM; in the test on SR leukemia, 2.07 µM; in the test with ACHN renal, 3.09 µM; in the test with OVCAR-5 ovarian, 1.96 µM; in the test with T-47D breast it was 2.25 µM. The GI50 is 2.03 µM with HCT-116 colon, 1.9 µM in the test with M14 melanoma, 2.27 µM in the test with SW-620 colon and 3.44 µM in the test with HOP-62 NSCLC. Moreover, the TGI is more than 6.75 µM in the test with NCI-H226 lung; 3.49 µM in the test on COLO 205 colon; more than 6.75 µM with SR leukemia; more than 6.75 µM with ACHN renal; more than 6.75 µM in the test on OVCAR-5 ovarian; more than 6.75 µM in the test on T-47D breast. Further, the TGI in the test with HCT-116 colon, in the test on M14 melanoma, with SW-620 colon and in the test on HOP-62 NSCLC was more than 6.75 µM throughout.
